One data set relates to N2a. The data set is described as follows: Neuroprotective activity against OGD/R induced cell injury in mouse N2a cells assessed as cell viability at 10 uM preincubated under hypoxic condition for 2 hrs and measured after 24 hrs (reference value: 28.66 to 30.22 %). It counts as functional. To be noted: time 26 hrs, read-out: Activity.
A short description of data set [1]: Tmax in Sprague-Dawley rat at 10 mg/kg, po measured upto 8 hrs by LC-MS/MS analysis. It is filed as ADME, organism-based. To be noted: Sprague-Dawley, in vivo, read-out: Tmax.
The nature of data set [2]: AUC(0 to infinity) in Sprague-Dawley rat at 10 mg/kg, po measured upto 8 hrs by LC-MS/MS analysis. It is filed as ADME, organism-based. Conditions: Sprague-Dawley, in vivo.
Data set [3] in a line: Half-life in Sprague-Dawley rat at 10 mg/kg, po measured upto 8 hrs by LC-MS/MS analysis. It is filed as ADME, organism-based. To be noted: Sprague-Dawley, in vivo.
Data set [4] can be described thus: Cmax in Sprague-Dawley rat at 10 mg/kg, po measured upto 8 hrs by LC-MS/MS analysis. It counts as ADME, organism-based. Conditions: Sprague-Dawley, in vivo, read-out: Cmax.
Data set [5] is described as follows: AUC(0 to t) in Sprague-Dawley rat at 10 mg/kg, po measured upto 8 hrs by LC-MS/MS analysis. It counts as ADME, organism-based. Conditions: in vivo.

Take `CCCC(O)c1ccc(C2=CCCCC2)cc1-c1nn[nH]n1` (stereo not drawn): the viability at 10 µM with N2a is 39.1%.
Take `CCCCC(O)c1ccc(Br)cc1-c1nnn(C2CC2)n1` (stereo not drawn): the viability at 10 µM with N2a came to 50.6%.
Take `CCCC(O)c1ccccc1-c1nn[nH]n1` (stereo not drawn): the viability at 10 µM in the data set on N2a came out at 35.6%.
In the case of `CCCCC(O)c1ccccc1-c1nn[nH]n1` (stereo not drawn), in data set [1], the Tmax turned out to be 15 min. This molecule registered an area under the curve AUC(0-inf) in data set [2] of 37100 ng·h/mL. In data set [3], this molecule showed a half-life of 279 min. Moreover, the Cmax in data set [4] turned out to be 12200 ng/mL. The exposure AUC(0-t) at 8 h in data set [5] was found to be 26500 ng·h/mL. Moreover, the viability at 10 µM in the data set on N2a worked out at 40.5%.
For the molecule `CCCCC(O)c1ccc(F)cc1-c1nn[nH]n1` (stereo not drawn), the Tmax in data set [1] stood at 15 min. In data set [5], this molecule yielded an exposure AUC(0-t) at 8 h of 2670 ng·h/mL. Further, the viability at 10 µM with N2a is 35.1%.
In the case of `CCCCC(O)c1ccc(Cl)cc1-c1nn[nH]n1` (stereo not drawn), the time to peak (Tmax) in data set [1] was 15 min. Besides, in data set [5], the area under the curve AUC(0-t) at 8 h stood at 2670 ng·h/mL. Further, the viability at 10 µM in the data set with N2a came out at 27.5%.
For `CCCCCC(O)c1ccccc1-c1nn[nH]n1` (stereo not drawn), in the data set on N2a, the viability at 10 µM turned out to be 35.6%.
Take `CCCCC(O)c1ccc(Br)cc1-c1nnn(CC)n1` (stereo not drawn): the Tmax in data set [1] is 15 min. The viability at 10 µM with N2a worked out at 53.6%.

Broadly, the Tmax is the time from dosing to the highest level. The AUC(0-inf) is total exposure, with the tail of the curve extrapolated. Usually half-life stands for the time in which the quantity being followed falls by half. By Cmax is commonly meant the highest concentration seen after dosing. As a reminder, the AUC(0-t) is the area under the concentration-time curve up to a stated or last time point.

Values taken from ChEMBL document CHEMBL5579827, “Discovery of orally bioavailable phenyltetrazolium derivatives for the acute treatment and the secondary prevention of ischemic stroke” (Eur J Med Chem, 2024).
